Measurements from patent publication US8389534B2, “Pyrimidine non-classical cannabinoid compounds and related methods of use” (The University of Tennessee Research Foundation, priority 2008, dated 2013).

Key:
[1] = tested on: glioblastoma brain cancer cell line LN-229; assay: Cytotoxicity assay (CCK8 viability); assay type: cell-based; settings: Homo sapiens, cytotoxicity against LN-229 cells, 18 hours incubation
Method: Cytoxocity assay: Cells were seeded on a 96 well polystyrene plate in full serum media at a density of 75,000 cells per milliliter, 100 μL per well. Plates were incubated at 37° C. and 5% CO2 for 24 hours to allow cell attachment. Drug solutions were prepared in DMSO at 100× concentration and mixed 1:100 in 1% FBS media to yield the desired concentration. Drug-media mixtures were vortexed immediately prior to administration to cells. Full serum media was removed and replaced with drug-media mixtures and incubated for 18 hours. 10 μL of Cell Counting Kit 8 (CCK8, Dojindo# CK04-11) was added to each well to colormetrically assess viability. After 2-4 hours of incubation with the CCK8 dye, absorbance was read at 450 nm by a BioTek Synergy 2 plate reader.
The cytotoxicity of selected compounds against the glioblastoma brain cancer cell line LN-229 is depicted in Table 1.

Row | SMILES | melting point [°C] | EC50 [1] [µM]
1 | Oc1nc(Cc2ccccc2)nc(O)c1-c1ccccc1 | 336.6 | 
2 | CC(C)(c1nc(O)c(-c2cc(Cl)cc(Cl)c2)c(O)n1)C1CCCCC1 [Compound 8g, 2-(2-Cyclohexylpropan-2-yl)-5-(3,5-dichlorophenyl)pyrimidine-4,6-diol] |  | 23.5
3 | CC(C)(c1ccccc1)c1nc(O)c(-c2cc(Cl)cc(Cl)c2)c(O)n1 [Compound 8h, 5-(3,5-Dichlorophenyl)-2-(2-phenylpropan-2-yl)pyrimidine-4,6-diol] |  | 51.8
4 | CCCCCCC(C)(C)c1nc(O)c(-c2cccc(C)c2)c(O)n1 [Compound 8j, 2-(2-Methyloctan-2-yl)-5-m-tolylpyrimidine-4,6-diol] |  | 55.4
